Measurements: PubChem BioAssay (NCI)
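Method: 48-hour compound exposure of cells in 96-well plates, five concentrations, linear interpolation of endpoints. TGI: concentration producing complete growth inhibition.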

Key:
Assay in all cases: inhibition of tumour cell growth, NCI panel, 48 h
NCI/ADR-RES ovarian = tested on: NCI/ADR-RES ovarian
OVCAR-4 ovarian = tested on: OVCAR-4 ovarian
TK-10 renal = tested on: TK-10 renal
KM12 colon = tested on: KM12 colon
SK-MEL-2 melanoma = tested on: SK-MEL-2 melanoma
CAKI-1 renal = tested on: CAKI-1 renal
HCC-2998 colon = tested on: HCC-2998 colon
K-562 leukemia = tested on: K-562 leukemia
HCT-15 colon = tested on: HCT-15 colon
SNB-19 CNS = tested on: SNB-19 CNS
OVCAR-3 ovarian = tested on: OVCAR-3 ovarian
OVCAR-5 ovarian = tested on: OVCAR-5 ovarian
U251 CNS = tested on: U251 CNS
NCI-H522 lung = tested on: NCI-H522 lung
HOP-62 NSCLC = tested on: HOP-62 NSCLC
SF-539 CNS = tested on: SF-539 CNS
SK-OV-3 ovarian = tested on: SK-OV-3 ovarian
786-0 renal = tested on: 786-0 renal
NCI-H460 lung = tested on: NCI-H460 lung
RXF 393 renal = tested on: RXF 393 renal
SF-295 CNS = tested on: SF-295 CNS
MDA-N = tested on: MDA-N
BT-549 breast = tested on: BT-549 breast
M14 melanoma = tested on: M14 melanoma
A549 NSCLC = tested on: A549 NSCLC
SK-MEL-28 melanoma = tested on: SK-MEL-28 melanoma
MDA-MB-435 = tested on: MDA-MB-435
SW-620 colon = tested on: SW-620 colon
MCF7 breast = tested on: MCF7 breast
HCT-116 colon = tested on: HCT-116 colon
DU-145 prostate = tested on: DU-145 prostate
HS 578T breast = tested on: HS 578T breast
NCI-H226 lung = tested on: NCI-H226 lung
SNB-75 CNS = tested on: SNB-75 CNS
IGROV1 ovarian = tested on: IGROV1 ovarian
PC-3 prostate = tested on: PC-3 prostate
UACC-62 melanoma = tested on: UACC-62 melanoma
MOLT-4 leukemia = tested on: MOLT-4 leukemia
SF-268 CNS = tested on: SF-268 CNS
A498 renal = tested on: A498 renal
LOX IMVI melanoma = tested on: LOX IMVI melanoma
HT29 colon = tested on: HT29 colon
MDA-MB-231 breast = tested on: MDA-MB-231 breast
EKVX NSCLC = tested on: EKVX NSCLC
HOP-92 NSCLC = tested on: HOP-92 NSCLC
ACHN renal = tested on: ACHN renal
MALME-3M melanoma = tested on: MALME-3M melanoma
SK-MEL-5 melanoma = tested on: SK-MEL-5 melanoma
CCRF-CEM leukemia = tested on: CCRF-CEM leukemia
T-47D breast = tested on: T-47D breast
SN12C renal = tested on: SN12C renal
COLO 205 colon = tested on: COLO 205 colon
OVCAR-8 ovarian = tested on: OVCAR-8 ovarian
SR leukemia = tested on: SR leukemia
NCI-H23 lung = tested on: NCI-H23 lung
RPMI-8226 leukemia = tested on: RPMI-8226 leukemia
UACC-257 melanoma = tested on: UACC-257 melanoma
UO-31 renal = tested on: UO-31 renal

Measured: TGI

C[N+]1(CCN[N+]2(C)CCCCC2)CCc2ccccc2C1 (configuration not stated)
> 100 µM: all assays above

COC(OC)[C@@H]1OC[C@@H](O)[C@@H]1n1cnc2c(N)ncnc21
not listed: SNB-19 CNS | A549 NSCLC | OVCAR-8 ovarian
> 100 µM: all other assays above

CC(=O)Oc1ccc(/C=C/C(=O)O[C@@H](C(=O)O)[C@@H](OC(=O)/C=C/c2ccc(OC(C)=O)c(OC(C)=O)c2)C(=O)O)cc1OC(C)=O
not listed: SF-539 CNS | NCI-H226 lung | MOLT-4 leukemia | HT29 colon
> 100 µM: all other assays above
